Data from the supplement of paper PMC10307832.

How the values were obtained:
Assay in all cases: relative viability (nuclei count vs DMSO), 5 days (fraction); higher = more cells survive
[1] = compound: CN[C@@H]1C[C@H]2O[C@@](C)([C@@H]1OC)n1c3ccccc3c3c4c(c5c6ccccc6n2c5c31)C(=O)NC4 [Staurosporine] + Cc1cc(Nc2cc(N3CCN(C)CC3)nc(Sc3ccc(NC(=O)C4CC4)cc3)n2)n[nH]1 [Tozasertib] (partner 0.1 µM)
How it was run: (§1)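 Each reported value is a median over duplicate plates. It expresses relative viability: treated-well nuclei count divided by vehicle-well nuclei count. Lung cancer cell lines in 1536-well plates were dosed by pin tool a day after seeding, alone with one drug or with a fixed anchor-drug dose plus five library-drug doses (not always all listed) in √10 steps, and nuclei were counted after 5 days.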

Sulindac + Alpelisib = compound: CC1=C(CC(=O)O)c2cc(F)ccc2/C1=C\c1ccc([S+](C)[O-])cc1 [Sulindac] + Cc1nc(NC(=O)N2CCC[C@H]2C(N)=O)sc1-c1ccnc(C(C)(C)C(F)(F)F)c1 [Alpelisib] (partner 2 µM)
How it was run: as §1

5-Fluorouracil + AZD7762 = compound: O=c1[nH]cc(F)c(=O)[nH]1 [5-Fluorouracil] + NC(=O)Nc1cc(-c2cccc(F)c2)sc1C(=O)N[C@H]1CCCNC1 [AZD7762] (partner 0.2 µM)
How it was run: as §1

[2] = compound: O=c1[nH]cc(F)c(=O)[nH]1 [5-Fluorouracil] + CC1(C)CCC(c2ccc(Cl)cc2)=C(CN2CCN(c3ccc(C(=O)NS(=O)(=O)c4ccc(N[C@H](CCN5CCOCC5)CSc5ccccc5)c(S(=O)(=O)C(F)(F)F)c4)cc3)CC2)C1 [Navitoclax] (partner 0.5 µM)
How it was run: as §1

Cell Line: NCI-H650
- relative viability ([1]; first compound 0.005 µM): 0.451
- relative viability ([1]; first compound 0.01581 µM): 0.238
- relative viability ([1]; first compound 0.05 µM): 0.278
- relative viability ([1]; first compound 0.1581 µM): 0.193
- relative viability ([1]; first compound 0.5 µM): 0.181
- relative viability (Sulindac + Alpelisib; first compound 0.08 µM): 1.05
- relative viability (Sulindac + Alpelisib; first compound 0.253 µM): 1.1
- relative viability (Sulindac + Alpelisib; first compound 0.8 µM): 0.578
- relative viability (Sulindac + Alpelisib; first compound 2.53 µM): 1.02
- relative viability (Sulindac + Alpelisib; first compound 8 µM): 1.17
- relative viability (5-Fluorouracil + AZD7762; first compound 0.02 µM): 0.883
- relative viability (5-Fluorouracil + AZD7762; first compound 0.2 µM): 0.464
- relative viability (5-Fluorouracil + AZD7762; first compound 0.6325 µM): 0.328
- relative viability (5-Fluorouracil + AZD7762; first compound 2 µM): 0.422

Cell Line: NCI-H441
- relative viability ([1]; first compound 0.005 µM): 0.392
- relative viability ([1]; first compound 0.01581 µM): 0.379
- relative viability ([1]; first compound 0.05 µM): 0.231
- relative viability ([1]; first compound 0.1581 µM): 0.195
- relative viability ([1]; first compound 0.5 µM): 0.208
- relative viability (Sulindac + Alpelisib; first compound 0.08 µM): 0.724
- relative viability (Sulindac + Alpelisib; first compound 0.253 µM): 0.713
- relative viability (Sulindac + Alpelisib; first compound 0.8 µM): 0.642
- relative viability (Sulindac + Alpelisib; first compound 2.53 µM): 0.888
- relative viability (Sulindac + Alpelisib; first compound 8 µM): 0.917
- relative viability (5-Fluorouracil + AZD7762; first compound 0.02 µM): 1.18
- relative viability (5-Fluorouracil + AZD7762; first compound 0.2 µM): 0.857
- relative viability (5-Fluorouracil + AZD7762; first compound 0.6325 µM): 0.402
- relative viability (5-Fluorouracil + AZD7762; first compound 2 µM): 0.317
- relative viability ([2]; first compound 0.02 µM): 1
- relative viability ([2]; first compound 0.2 µM): 0.502
- relative viability ([2]; first compound 0.6325 µM): 0.507
- relative viability ([2]; first compound 2 µM): 0.409

Cell Line: COR-L 105
- relative viability ([1]; first compound 0.005 µM): 0.253
- relative viability ([1]; first compound 0.01581 µM): 0.26
- relative viability ([1]; first compound 0.05 µM): 0.245
- relative viability ([1]; first compound 0.1581 µM): 0.237
- relative viability ([1]; first compound 0.5 µM): 0.229
- relative viability (Sulindac + Alpelisib; first compound 0.08 µM): 0.826
- relative viability (Sulindac + Alpelisib; first compound 0.253 µM): 0.818
- relative viability (Sulindac + Alpelisib; first compound 0.8 µM): 0.673
- relative viability (Sulindac + Alpelisib; first compound 2.53 µM): 0.949
- relative viability (Sulindac + Alpelisib; first compound 8 µM): 1.29
- relative viability ([2]; first compound 0.02 µM): 0.707
- relative viability ([2]; first compound 0.2 µM): 0.685
- relative viability ([2]; first compound 0.6325 µM): 0.694
- relative viability ([2]; first compound 2 µM): 0.582

Cell Line: NCI-H2009
- relative viability ([1]; first compound 0.005 µM): 0.295
- relative viability ([1]; first compound 0.01581 µM): 0.312
- relative viability ([1]; first compound 0.05 µM): 0.176
- relative viability ([1]; first compound 0.1581 µM): 0.19
- relative viability ([1]; first compound 0.5 µM): 0.0978
- relative viability (Sulindac + Alpelisib; first compound 0.08 µM): 1.23
- relative viability (Sulindac + Alpelisib; first compound 0.253 µM): 1.18
- relative viability (Sulindac + Alpelisib; first compound 0.8 µM): 1.1
- relative viability (Sulindac + Alpelisib; first compound 2.53 µM): 1.18
- relative viability (Sulindac + Alpelisib; first compound 8 µM): 1.27
- relative viability ([2]; first compound 0.02 µM): 1.18
- relative viability ([2]; first compound 0.2 µM): 1.16
- relative viability ([2]; first compound 0.6325 µM): 1.08
- relative viability ([2]; first compound 2 µM): 0.726

Cell Line: NCI-H1437
- relative viability ([1]; first compound 0.005 µM): 0.402
- relative viability ([1]; first compound 0.05 µM): 0.381
- relative viability ([1]; first compound 0.1581 µM): 0.325
- relative viability ([1]; first compound 0.5 µM): 0.199
- relative viability (Sulindac + Alpelisib; first compound 0.08 µM): 1.25
- relative viability (Sulindac + Alpelisib; first compound 0.253 µM): 0.905
- relative viability (Sulindac + Alpelisib; first compound 0.8 µM): 0.733
- relative viability (Sulindac + Alpelisib; first compound 2.53 µM): 0.946
- relative viability (Sulindac + Alpelisib; first compound 8 µM): 1.17
- relative viability (5-Fluorouracil + AZD7762; first compound 0.02 µM): 0.34
- relative viability (5-Fluorouracil + AZD7762; first compound 0.2 µM): 0.199
- relative viability (5-Fluorouracil + AZD7762; first compound 0.6325 µM): 0.17
- relative viability (5-Fluorouracil + AZD7762; first compound 2 µM): 0.116
- relative viability ([2]; first compound 0.2 µM): 0.243
- relative viability ([2]; first compound 0.6325 µM): 0.203
- relative viability ([2]; first compound 2 µM): 0.139
